US7531546B2, “Spiro-substituted pyrrolo[2,3-D]pyrimidines as cathepsin inhibitors” (Novartis AG, priority 2003, dated 2009)

Tests used:
[1] = target: T1, recombinant human cathepsin K (Homo sapiens, UniProt P43235); experiment: in vitro inhibition of recombinant human cathepsin K; format: biochemical; details: recombinant enzyme, substrate Z-Phe-Arg-AMCA, pH 7.0, 30 min preincubation, fluorescence readout
T1 sequence (P43235 115-329): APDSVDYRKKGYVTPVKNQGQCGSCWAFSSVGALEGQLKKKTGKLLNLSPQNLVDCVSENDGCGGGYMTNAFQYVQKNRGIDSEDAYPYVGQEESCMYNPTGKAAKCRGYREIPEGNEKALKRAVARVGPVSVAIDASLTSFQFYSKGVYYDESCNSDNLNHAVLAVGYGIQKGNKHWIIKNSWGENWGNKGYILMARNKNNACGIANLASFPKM
Experimental: The in vitro assay is carried out as follows:
The assay is performed in 96 well microtiter plates at ambient temperature using recombinant human cathepsin K. Inhibition of cathepsin K is assayed at a constant enzyme (0.16 nM) and substrate concentration ([…] Z-Phe-Arg-AMCA—Peptide Institute Inc. Osaka, Japan) in 100 mM sodium phosphate buffer, pH 7.0, containing 2 mM dithiothreitol, 20 mM Tween 80 and 1 mM EDTA. Cathepsin K is preincubated with the inhibitors for 30 min, and the reaction is initiated by the addition of substrate. After 30 min incubation the reaction is stopped by the addition of E-64 (2 mM), and fluorescence intensity is read on a multi-well plate reader at excitation and emission wavelengths of 360 and 460 nm, respectively.

[2] = target: recombinant human cathepsin S (Homo sapiens, UniProt P25774); experiment: in vitro inhibition of recombinant human cathepsin S; format: biochemical; details: recombinant enzyme 0.04 nM, substrate Z-Leu-Leu-4-methylcoumaryl-7-amide, pH 7.0, fluorescence readout
Sequence of recombinant human cathepsin S (P25774 115-331): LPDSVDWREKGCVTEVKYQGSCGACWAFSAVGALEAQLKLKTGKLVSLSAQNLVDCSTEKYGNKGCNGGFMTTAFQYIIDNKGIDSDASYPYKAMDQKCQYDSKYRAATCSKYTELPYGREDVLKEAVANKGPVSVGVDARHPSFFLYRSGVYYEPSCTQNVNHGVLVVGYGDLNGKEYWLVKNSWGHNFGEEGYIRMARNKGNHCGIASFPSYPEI
Experimental: The in vitro assay is carried out in clear, flat-bottomed, 96-well microtiter plates (Greiner GmbH, Germany) at ambient temperature using recombinant human cathepsin S. Inhibition of human cathepsin S is assayed at a constant enzyme and various substrate concentrations (substrate is Z-Leu-Leu-4-methylcoumaryl-7-amide (Bachem (Switzerland)) in 100 parts 0.2M sodium phosphate, pH 7.0, containing 2 mM EDTA, 2 parts 1% Triton X-100, 10 parts 20 mM dithiothreitol (DTT) and 58 parts distilled water. The assay is started by adding the enzyme solution (13 times higher concentration of final concentration of recombinant human Cathepsin S) to the reaction mixture containing various concentrations of the corresponding substrate and the compound. Substrate concentrations between 3.4 and 17 μM are used. The recombinant human Cathepsin S is used at a final concentration of 0.04 nM. Test compounds are used at concentrations between 0.4 and 2 times the determined IC50 of the compound at the enzyme. The relative fluorescence is continuously measured for 30 minutes and the initial velocity is obtained from each progress curve. […]

Row | SMILES | IC50 [1] [nM] | IC50 [2] [nM]
1 | CC(C)(C)Cn1c(CN2C(=O)CC3(CCNCC3)C2=O)cc2cnc(C#N)nc21 [Example 3-0, 7-(2,2-Dimethyl-propyl)-6-(1,3-dioxo-2,8-diaza-spiro[4.5]dec-2-ylmethyl)-7H-pyrrolo[2,3-d]pyrimidine-2-carbonitrile] | ~0.16 | –
2 | CC(C)(C)CCn1c(CN2CCC3(CCN(S(C)(=O)=O)CC3)C2)cc2cnc(C#N)nc21 [Example 4-3] | 8 | 6
3 | CC(=O)N1CCC2(CC1)C(=O)N(Cc1cc3cnc(C#N)nc3n1CCC1CCCCC1)c1ccccc12 [Example 4-8] | – | ~9
4 | CC(=O)N1CCC2(CC1)C(=O)N(Cc1cc3cnc(C#N)nc3n1CCC(C)(C)C)c1ccccc12 [Example 4-9] | 16 | 10
